Inconclusive results and toxic doses are left out. Cut-off read from the data, not from the text of the source: active = T/C of 150% or more; inactive = T/C below 125%.
Test system: L1210 leukemia ip in BDF1 mice, survival T/C
Experiment: NCI In Vivo Anticancer Drug Screen. Data for tumor model L1210 Leukemia (intraperitoneal) in B6D2F1 (BDF1) mice
Conditions: endpoint: mean survival time, higher = longer survival
Procedure, shortened: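 Survival endpoint. Drug-treated group vs vehicle group, expressed as T divided by C. Tumor passaged by transplantation.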

[1] = dose: 50.0 mg/kg/injection, schedule: Q01DX009 (ip), vehicle: Klucel (hydroxypropylcellulose) (HPC)
[2] = dose: 100.0 mg/kg/injection, schedule: Q01DX009 (ip), vehicle: Klucel (hydroxypropylcellulose) (HPC)
[3] = dose: 200.0 mg/kg/injection, schedule: Q01DX009 (ip), vehicle: Klucel (hydroxypropylcellulose) (HPC)
[4] = dose: 50.0 mg/kg/injection, schedule: Q01DX009 (ip), vehicle: saline
[5] = dose: 100.0 mg/kg/injection, schedule: Q01DX009 (ip), vehicle: saline
[6] = dose: 200.0 mg/kg/injection, schedule: Q01DX009 (ip), vehicle: saline
[7] = dose: 100.0 mg/kg/injection, schedule: Q04DX003 (ip), vehicle: Klucel (hydroxypropylcellulose) (HPC)
[8] = dose: 200.0 mg/kg/injection, schedule: Q04DX003 (ip), vehicle: Klucel (hydroxypropylcellulose) (HPC)
[9] = dose: 400.0 mg/kg/injection, schedule: Q04DX003 (ip), vehicle: Klucel (hydroxypropylcellulose) (HPC)
[10] = dose: 100.0 mg/kg/injection, schedule: Q01DX009 (ip), vehicle: saline with Tween-80
[11] = dose: 100.0 mg/kg/injection, schedule: Q04DX003 (ip), vehicle: saline with Tween-80
[12] = dose: 50.0 mg/kg/injection, schedule: Q04DX003 (ip), vehicle: Klucel (hydroxypropylcellulose) (HPC)
[13] = dose: 200.0 mg/kg/injection, schedule: Q01DX009 (ip), vehicle: saline with Tween-80
[14] = dose: 400.0 mg/kg/injection, schedule: Q01DX009 (ip), vehicle: saline with Tween-80
[15] = dose: 100.0 mg/kg/injection, schedule: Q01DX001 (ip), vehicle: Klucel (hydroxypropylcellulose) (HPC)
[16] = dose: 100.0 mg/kg/injection, schedule: Q01DX001 (ip), vehicle: saline with Tween-80
[17] = dose: 200.0 mg/kg/injection, schedule: Q01DX001 (ip), vehicle: saline with Tween-80
[18] = dose: 400.0 mg/kg/injection, schedule: Q01DX001 (ip), vehicle: saline with Tween-80

Measured: T/C

COc1ccc([N+](=O)[O-])cc1NC(=O)Nc1nccs1
inactive: [1] 105 % of control | [2] 105 % of control | [3] 101 % of control

CCN(CC)CCOC(=O)c1ccc(Cl)cc1
inactive: [4] 100 % of control | [5] 96 % of control | [6] 96 % of control

CC(C)CCCCCc1ccc(OCCOc2ccc(C(=O)Nc3ccc(S(=O)(=O)F)cc3N)cc2)cc1
inactive: dose: 100.0 mg/kg/injection, schedule: Q01DX009 (ip), vehicle: saline sonified 107 % of control | [7] 98 % of control | dose: 200.0 mg/kg/injection, schedule: Q01DX009 (ip), vehicle: saline sonified 100 % of control | [8] 96 % of control | dose: 400.0 mg/kg/injection, schedule: Q01DX009 (ip), vehicle: saline sonified 98 % of control | [9] 94 % of control

Cc1ccc(C)c(Cl)c1Cl
inactive: dose: 75.0 mg/kg/injection, schedule: Q01DX009 (ip), vehicle: saline sonified 98 % of control | dose: 100.0 mg/kg/injection, schedule: Q04DX003 (ip), vehicle: saline 103 % of control | dose: 150.0 mg/kg/injection, schedule: Q01DX009 (ip), vehicle: saline sonified 103 % of control | dose: 200.0 mg/kg/injection, schedule: Q04DX003 (ip), vehicle: saline 108 % of control | dose: 300.0 mg/kg/injection, schedule: Q01DX009 (ip), vehicle: saline sonified 99 % of control | dose: 400.0 mg/kg/injection, schedule: Q04DX003 (ip), vehicle: saline 103 % of control

CCOC(=O)/C=C1\NC(=O)N(CCCN2C(=O)N/C(=C\C(=O)OCC)C2=O)C1=O
inactive: [10] 97 % of control

Cc1ccc2cc3c(ccc4ccccc43)c3c2c1CC3
inactive: [11] 119 % of control | dose: 200.0 mg/kg/injection, schedule: Q04DX003 (ip), vehicle: saline with Tween-80 120 % of control | dose: 400.0 mg/kg/injection, schedule: Q04DX003 (ip), vehicle: saline with Tween-80 120 % of control

COc1ccc(C2(SCC(N)C(=O)O)c3ccccc3-c3ccccc32)cc1 (stereo not given)
inactive: dose: 25.0 mg/kg/injection, schedule: Q01DX009 (ip), vehicle: saline 101 % of control | [4] 98 % of control | [5] 95 % of control | [6] 93 % of control | dose: 300.0 mg/kg/injection, schedule: Q01DX009 (ip), vehicle: saline 98 % of control | dose: 400.0 mg/kg/injection, schedule: Q01DX009 (ip), vehicle: saline 102 % of control

CCCCC/C(C)=N\Nc1ccccn1
inactive: dose: 12.5 mg/kg/injection, schedule: Q01DX009 (ip), vehicle: Klucel (hydroxypropylcellulose) (HPC) 98 % of control | dose: 25.0 mg/kg/injection, schedule: Q01DX009 (ip), vehicle: Klucel (hydroxypropylcellulose) (HPC) 100 % of control | dose: 25.0 mg/kg/injection, schedule: Q01DX009 (ip), vehicle: acetone 97 % of control | dose: 50.0 mg/kg/injection, schedule: Q01DX001 (ip), vehicle: acetone 100 % of control | [1] 104 % of control | dose: 50.0 mg/kg/injection, schedule: Q01DX009 (ip), vehicle: acetone 100 % of control | [12] 95 % of control | dose: 50.0 mg/kg/injection, schedule: Q04DX003 (ip), vehicle: saline with Tween-80 100 % of control | dose: 100.0 mg/kg/injection, schedule: Q01DX001 (ip), vehicle: acetone 102 % of control | dose: 100.0 mg/kg/injection, schedule: Q01DX009 (ip), vehicle: acetone 88 % of control | [7] 101 % of control | [11] 100 % of control | dose: 200.0 mg/kg/injection, schedule: Q01DX001 (ip), vehicle: acetone 94 % of control | [8] 106 % of control

CCCCCCCCCCCCNC(=O)C[n+]1cccc(C(=O)N(CC)CC)c1
inactive: dose: 12.5 mg/kg/injection, schedule: Q04DX003 (ip), vehicle: saline 92 % of control | dose: 25.0 mg/kg/injection, schedule: Q04DX003 (ip), vehicle: saline 97 % of control | dose: 50.0 mg/kg/injection, schedule: Q04DX003 (ip), vehicle: saline 97 % of control

O=C(O)c1ccc2c(ccc3ccc4ccccc4c32)c1
inactive: dose: 12.5 mg/kg/injection, schedule: Q04DX003 (ip), vehicle: Klucel (hydroxypropylcellulose) (HPC) 100 % of control | dose: 25.0 mg/kg/injection, schedule: Q04DX003 (ip), vehicle: Klucel (hydroxypropylcellulose) (HPC) 89 % of control | [12] 96 % of control | [7] 97 % of control | [8] 106 % of control

O=S(=O)(O)C(O)c1cccc2ccccc12 (stereo not given)
inactive: [10] 105 % of control | [13] 105 % of control | [14] 115 % of control

Nc1cc(S(=O)O)c2cccnc2c1O
inactive: dose: 75.0 mg/kg/injection, schedule: Q01DX009 (ip), vehicle: Klucel (hydroxypropylcellulose) (HPC) 88 % of control | [7] 97 % of control | dose: 150.0 mg/kg/injection, schedule: Q01DX009 (ip), vehicle: Klucel (hydroxypropylcellulose) (HPC) 108 % of control | [8] 95 % of control | dose: 300.0 mg/kg/injection, schedule: Q01DX009 (ip), vehicle: Klucel (hydroxypropylcellulose) (HPC) 93 % of control

CCC(C(=O)c1cccs1)C(O)(C(F)(F)F)C(F)(F)F (stereo not given)
inactive: [15] 102 % of control | dose: 200.0 mg/kg/injection, schedule: Q01DX001 (ip), vehicle: Klucel (hydroxypropylcellulose) (HPC) 97 % of control | dose: 400.0 mg/kg/injection, schedule: Q01DX001 (ip), vehicle: Klucel (hydroxypropylcellulose) (HPC) 94 % of control

Brc1ccc2c(c1)/C(=C/c1ccccc1)c1ccccc1-2
inactive: dose: 25.0 mg/kg/injection, schedule: Q04DX002 (ip), vehicle: DMSO 92 % of control | dose: 50.0 mg/kg/injection, schedule: Q04DX002 (ip), vehicle: DMSO 95 % of control

O=C(Nc1ccccc1C(F)(F)F)OCCOc1ccccc1Cl
inactive: [7] 92 % of control | [8] 92 % of control | [9] 92 % of control

O=C(/C=C/c1ccccc1)Nc1ccc(Cl)cc1C(=O)c1ccccc1
inactive: [2] 102 % of control | [3] 97 % of control | dose: 400.0 mg/kg/injection, schedule: Q01DX009 (ip), vehicle: Klucel (hydroxypropylcellulose) (HPC) 94 % of control

COC(=O)NS(=O)(=O)c1cccs1
inactive: dose: 100.0 mg/kg/injection, schedule: Q04DX002 (ip), vehicle: other 98 % of control | dose: 200.0 mg/kg/injection, schedule: Q04DX002 (ip), vehicle: other 94 % of control | dose: 400.0 mg/kg/injection, schedule: Q04DX002 (ip), vehicle: other 102 % of control

Cc1ccc(C(=O)NCc2ccc(CCc3nc(N)nc(N)c3-c3ccc(Cl)c(Cl)c3)cc2)cc1S(=O)(=O)F
inactive: [16] 100 % of control | [17] 110 % of control | [18] 114 % of control

Nc1cccc(CSc2nc3nc[nH]c3c(=O)[nH]2)c1
inactive: dose: 25.0 mg/kg/injection, schedule: Q01DX001 (ip), vehicle: Klucel (hydroxypropylcellulose) (HPC) 102 % of control | dose: 50.0 mg/kg/injection, schedule: Q01DX001 (ip), vehicle: Klucel (hydroxypropylcellulose) (HPC) 100 % of control | [15] 102 % of control

CN(Cc1ccccc1)C(=O)/C=C/c1ccccc1
inactive: [2] 93 % of control | [7] 94 % of control | [3] 96 % of control | [8] 96 % of control | [9] 89 % of control

COc1cc(N)nc(OC)n1
inactive: [10] 98 % of control | [13] 98 % of control | [14] 97 % of control

CC(C)CNC(=O)Nc1ccccc1
inactive: dose: 75.0 mg/kg/injection, schedule: Q01DX001 (ip), vehicle: saline 97 % of control | dose: 150.0 mg/kg/injection, schedule: Q01DX001 (ip), vehicle: saline 95 % of control

Cc1c[nH]c(=O)[nH]1
inactive: dose: 100.0 mg/kg/injection, schedule: Q04DX002 (ip), vehicle: saline 109 % of control | dose: 200.0 mg/kg/injection, schedule: Q04DX002 (ip), vehicle: saline 106 % of control | dose: 400.0 mg/kg/injection, schedule: Q04DX002 (ip), vehicle: saline 117 % of control

Brc1cccc[n+]1Cc1ccc(C[n+]2ccccc2Br)cc1
inactive: dose: 2.66 mg/kg/injection, schedule: Q01DX Z (ip), vehicle: saline 98 % of control

CC(=O)Nc1ccc(C(C)(C)C)cc1
inactive: [16] 95 % of control | [17] 95 % of control | [18] 95 % of control
